What was measured:
[1] = target: T1, human calcitonin receptor (CTR) (Homo sapiens, UniProt P30988); test: Calcitonin Receptor (CTR) cAMP Assay; type: cell-based; settings: COS7-human CTR Clone #2 stable cell line, cAMP dynamic 2 kit, 30 min; read-out: Calcitonin Receptor cAMP Stimulation Activity: EC50
T1 construct: expressed in transfected cells; host or cells: COS-7 (COS7-human CTR Clone #2)
T1 sequence (P30988 25-474): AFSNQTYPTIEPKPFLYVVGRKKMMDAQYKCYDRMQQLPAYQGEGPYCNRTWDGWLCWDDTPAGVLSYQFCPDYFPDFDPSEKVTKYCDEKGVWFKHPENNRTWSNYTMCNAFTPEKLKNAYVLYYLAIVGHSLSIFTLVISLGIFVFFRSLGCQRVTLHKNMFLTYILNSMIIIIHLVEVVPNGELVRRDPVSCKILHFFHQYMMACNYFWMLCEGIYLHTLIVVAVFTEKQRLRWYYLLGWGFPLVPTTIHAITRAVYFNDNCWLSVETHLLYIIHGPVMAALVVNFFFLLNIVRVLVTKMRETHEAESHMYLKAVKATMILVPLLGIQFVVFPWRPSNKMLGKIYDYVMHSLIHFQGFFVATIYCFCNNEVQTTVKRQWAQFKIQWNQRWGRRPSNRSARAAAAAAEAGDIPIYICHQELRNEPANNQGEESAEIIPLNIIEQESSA
Procedure, shortened: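 cAMP accumulation was measured by HTRF cAMP dynamic 2 read at 665/615 nm, 1 h at room temperature, with results scaled between vehicle and positive control. Before detection, COS7-human CTR stable cells were stimulated 30 min at 37 °C with compound (4-fold dilutions) in IBMX-containing HBSS/HEPES/casein buffer.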

[2] = target: T2, COS-7/AMY3 (human calcitonin receptor (CTR) and RAMP3) (Homo sapiens, UniProt O60896+P30988); test: Amylin Receptor cAMP Assay II; type: cell-based; settings: values marked **: Amylin Receptor cAMP Assay II; COS-7/AMY3 cells, cAMP dynamic 2 kit, 30 min; read-out: Amylin Receptor cAMP Stimulation Activity: EC50
T2 construct: expressed in transfected cells; host or cells: COS-7
T2 sequence (O60896 24-148, one chain of several): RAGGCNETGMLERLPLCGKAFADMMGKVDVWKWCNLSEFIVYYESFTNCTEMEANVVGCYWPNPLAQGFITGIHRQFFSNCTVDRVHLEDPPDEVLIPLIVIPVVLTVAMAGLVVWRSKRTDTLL
Procedure, shortened: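 Agonist-induced cAMP was quantified by HTRF ratio at 665/615 nm and expressed as % of the window from vehicle to MAX control. Stimulation lasted 30 min at 37 °C in HBSS/20 mM HEPES/0.5 mM IBMX/0.1% casein, using stable human CTR+RAMP3 (AMY3) COS-7 cells at 2000 per well.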

| Structure (SMILES) | EC50 [1] | EC50 [2] |
| --- | --- | --- |
| O=C1c2c(nc(CCc3ccc(F)cc3)c(-c3noc(=O)[nH]3)c2-c2cc3ccnc(NCc4ccc(F)c(F)c4)c3s2)[C@@H]2CCCN12 [Compound 130] | 3.06 nM | 38.3 nM |
| Cc1cc2cc(-c3c4c(nc(CCc5ccc(F)cc5)c3-c3n[nH]c(=O)o3)[C@@H]3COCCN3C4=O)sc2c(N[C@@H]2CCc3cc(F)c(F)cc32)n1 [Compound 254, (R)-4-(7-(((R)-5,6-difluoro-2,3-dihydro-1H-inden-1-yl)amino)-5-methylthieno[2,3-c]pyridin-2-yl)-2-(4-fluorophenethyl)-3-(5-oxo-4,5-dihydro-1,3,4-oxadiazol-2-yl)-7,8,10,10a-tetrahydro-5H-pyrido[2′,3′:3,4]pyrrolo[2,1-c][1,4]oxazin-5-one] | 0.0659 nM | 0.707 nM |
| COc1cccc2c1CC[C@H]2Nc1nccc2cc(-c3c4c(nc(CCc5ccc(F)cc5)c3-c3n[nH]c(=O)o3)[C@@H]3COCCN3C4=O)sc12 [Compound 174, (R)-2-(4-fluorophenethyl)-4-(7-(((R)-4-methoxy-2,3-dihydro-1H-inden-1-yl)amino)thieno[2,3-c]pyridin-2-yl)-3-(5-oxo-4,5-dihydro-1,3,4-oxadiazol-2-yl)-7,8,10,10a-tetrahydro-5H-pyrido[2′,3′:3,4]pyrrolo[2,1-c][1,4]oxazin-5-one] | 0.347 nM | 31.9 nM |
| O=C1c2c(nc(CCc3ccc(F)cc3)c(-c3n[nH]c(=O)o3)c2-c2cnc3c(ccn3Cc3ncc(Cl)cc3F)c2)[C@@H]2CCCN12 [Compound 211, (S)-5-(4-(1-((5-chloro-3-fluoropyridin-2-yl)methyl)-1H-pyrrolo[2,3-b]pyridin-5-yl)-2-(4-fluorophenethyl)-5-oxo-7,8,9,9a-tetrahydro-5H-pyrido[2,3-a]pyrrolizin-3-yl)-1,3,4-oxadiazol-2(3H)-one] | 3.85 nM | 434 nM |
| COc1c(F)ccc2c1CC[C@H]2Nc1ncnc2sc(-c3c4c(nc(CCc5ccc(F)cc5)c3-c3n[nH]c(=O)o3)C35CC(CN3C4=O)C5)cc12 [Compound 270, (R)-5-(4-(4-((5-fluoro-4-methoxy-2,3-dihydro-1H-inden-1-yl)amino)thieno[2,3-d]pyrimidin-6-yl)-2-(4-fluorophenethyl)-5-oxo-8,9-dihydro-5H,7H-8,9a-methanopyrido[2,3-a]pyrrolizin-3-yl)-1,3,4-oxadiazol-2(3H)-one] | 0.148 nM | 1.6 nM |
| COc1cc(F)cc2c1CC[C@H]2Nc1nc(C)cc2cc(-c3c4c(nc(CCc5ccc(F)cc5)c3-c3n[nH]c(=O)o3)C35CC(CN3C4=O)C5)sc12 [Compound 298, (R)-5-(4-(7-((6-fluoro-4-methoxy-2,3-dihydro-1H-inden-1-yl)amino)-5-methylthieno[2,3-c]pyridin-2-yl)-2-(4-fluorophenethyl)-5-oxo-8,9-dihydro-5H,7H-8,9a-methanopyrido[2,3-a]pyrrolizin-3-yl)-1,3,4-oxadiazol-2(3H)-one] | 0.0212 nM | 0.747 nM |
| O=C1c2c(nc(CCc3ccc(F)cc3)c(-c3n[nH]c(=O)o3)c2-c2cc3ccnc(N[C@@H]4CCc5ccc(Cl)cc54)c3s2)C23CC(CN12)C3 [Compound 274, (R)-5-(4-(7-((6-chloro-2,3-dihydro-1H-inden-1-yl)amino)thieno[2,3-c]pyridin-2-yl)-2-(4-fluorophenethyl)-5-oxo-8,9-dihydro-5H,7H-8,9a-methanopyrido[2,3-a]pyrrolizin-3-yl)-1,3,4-oxadiazol-2(3H)-one] | 0.255 nM | 4.54 nM |
| CC(c1ccc(F)c(F)c1)n1ccc2cc(-c3c4c(nc(CCC5CCOCC5)c3-c3cc(=O)[nH]o3)[C@@H]3CCCN3C4=O)ccc21 (stereo partly drawn) [Compound 202, 5-((9aS)-4-(1-(1-(3,4-difluorophenyl)ethyl)-1H-indol-5-yl)-5-oxo-2-(2-(tetrahydro-2H-pyran-4-yl)ethyl)-7,8,9,9a-tetrahydro-5H-pyrido[2,3-a]pyrrolizin-3-yl)isoxazol-3(2H)-one] | 66.2 nM | 1750 nM |
| O=C1c2c(nc(CCc3ccc(F)cc3)c(-c3n[nH]c(=O)o3)c2-c2cc3ccnc(N[C@@H]4CCc5cc(Cl)cnc54)c3s2)C23CC(CN12)C3 [Compound 266, (R)-5-(4-(7-((3-chloro-6,7-dihydro-5H-cyclopenta[b]pyridin-7-yl)amino)thieno[2,3-c]pyridin-2-yl)-2-(4-fluorophenethyl)-5-oxo-8,9-dihydro-5H,7H-8,9a-methanopyrido[2,3-a]pyrrolizin-3-yl)-1,3,4-oxadiazol-2(3H)-one] | 2.75 nM | 182 nM |

Further compounds by falling EC50 [1], results first:

| EC50 [1] | EC50 [2] | Structure (SMILES) |
| --- | --- | --- |
| 396 nM | 425 nM | O=C1c2c(nc(CCc3ccc(F)cc3)c(-c3noc(=O)[nH]3)c2-c2ccc3c(c2)CCCN3CCc2ccc(F)c(F)c2)[C@@H]2CCCN12 [Compound 114] |
| 205 nM | 401 nM | O=C1c2c(nc(CCc3ccc(F)cc3)c(-c3noc(=O)[nH]3)c2-c2ccc3c(NCc4ccc(F)c(F)c4)nccc3c2)[C@@H]2CCCN12 [Compound 111] |
| 20.5 nM | 11400 nM | O=C1c2c(nc(CCc3ccc(F)cc3)c(-c3n[nH]c(=O)o3)c2-c2ccc3c(c2)CCCN3Cc2ccc(F)cc2F)[C@@H]2CCCN12 [Compound 220, (S)-5-(4-(1-(2,4-difluorobenzyl)-1,2,3,4-tetrahydroquinolin-6-yl)-2-(4-fluorophenethyl)-5-oxo-7,8,9,9a-tetrahydro-5H-pyrido[2,3-a]pyrrolizin-3-yl)-1,3,4-oxadiazol-2(3H)-one] |
| 19.3 nM | 1370 nM | O=C1c2c(nc(CCC3CCOCC3)c(-c3cc(=O)[nH]o3)c2-c2ccc3c(ccn3Cc3ccc(F)c(F)c3)c2)[C@@H]2CCCN12 [Compound 201, (S)-5-(4-(1-(3,4-difluorobenzyl)-1H-indol-5-yl)-5-oxo-2-(2-(tetrahydro-2H-pyran-4-yl)ethyl)-7,8,9,9a-tetrahydro-5H-pyrido[2,3-a]pyrrolizin-3-yl)isoxazol-3(2H)-one] |
| 2.13 nM | 19.1 nM | C[C@@H](Nc1nccc2cc(-c3c4c(nc(CCc5ccc(F)cc5)c3-c3noc(=O)[nH]3)[C@@H]3CCCN3C4=O)sc12)c1ccc(F)c(F)c1 [Compound 140] |
| 1.21 nM | 33.5 nM | COc1cccc2c1CC[C@H]2Nc1nccc2cc(-c3c(-c4n[nH]c(=O)o4)c(CCc4ccc(F)cc4)nc4c3c(=O)n3n4CCC3)sc12 [Compound 155] |
| 0.309 nM | 11.3 nM | COc1cccc2c1CC[C@H]2Nc1nc(C)cc2cc(-c3c4c(nc(CCc5ccc(F)cc5)c3-c3n[nH]c(=O)o3)[C@@H]3CCCN3C4=O)sc12 [Compound 207, 5-((S)-2-(4-fluorophenethyl)-4-(7-(((R)-4-methoxy-2,3-dihydro-1H-inden-1-yl)amino)-5-methylthieno[2,3-c]pyridin-2-yl)-5-oxo-7,8,9,9a-tetrahydro-5H-pyrido[2,3-a]pyrrolizin-3-yl)-1,3,4-oxadiazol-2(3H)-one] |
| 0.223 nM | 6.57 nM | COc1cccc2c1CC[C@H]2Nc1nc(C(F)F)cc2cc(-c3c4c(nc(CCc5ccc(F)cc5)c3-c3n[nH]c(=O)o3)[C@@H]3CCCN3C4=O)sc12 [Compound 188, 5-((S)-4-(5-(difluoromethyl)-7-(((R)-4-methoxy-2,3-dihydro-1H-inden-1-yl)amino)thieno[2,3-c]pyridin-2-yl)-2-(4-fluorophenethyl)-5-oxo-7,8,9,9a-tetrahydro-5H-pyrido[2,3-a]pyrrolizin-3-yl)-1,3,4-oxadiazol-2(3H)-one] |
| 0.174 nM | 7.34 nM | Cc1cc2cc(-c3c4c(nc(CCc5ccc(F)cc5)c3-c3n[nH]c(=O)o3)C35CC(CN3C4=O)C5)sc2c(N[C@@H]2CCc3c(Cl)cncc32)n1 [Compound 265, (R)-5-(4-(7-((4-chloro-6,7-dihydro-5H-cyclopenta[c]pyridin-7-yl)amino)-5-methylthieno[2,3-c]pyridin-2-yl)-2-(4-fluorophenethyl)-5-oxo-8,9-dihydro-5H,7H-8,9a-methanopyrido[2,3-a]pyrrolizin-3-yl)-1,3,4-oxadiazol-2(3H)-one] |
| 0.0875 nM | 1.38 nM | O=C1c2c(nc(CCc3ccc(F)cc3)c(-c3n[nH]c(=O)o3)c2-c2cc3ccnc(N[C@@H]4CCc5cc(F)c(F)cc54)c3s2)[C@@H]2CCCN12 [Compound 166, 5-((S)-4-(7-(((R)-5,6-difluoro-2,3-dihydro-1H-inden-1-yl)amino)thieno[2,3-c]pyridin-2-yl)-2-(4-fluorophenethyl)-5-oxo-7,8,9,9a-tetrahydro-5H-pyrido[2,3-a]pyrrolizin-3-yl)-1,3,4-oxadiazol-2(3H)-one] |

From patent publication US12486269B2 (Aconcagua Bio, Inc., priority 2024, dated 2025)
